Laboratory results from PMC11729419, “Thiol-Reactive or Redox-Active: Revising a Repurposing Screen Led to a New Invalidation Pipeline and Identified a True Noncovalent Inhibitor Against Papain-like Protease from SARS-CoV-2” (ACS Pharmacology & Translational Science, 2024).
pIC50: −log10 of the molar value. Read-outs that look alike come from different tables or passages of the source.

What was measured:
SARS-CoV-2 PLpro = SARS-CoV-2 PLpro (Severe acute respiratory syndrome coronavirus 2, UniProt P0DTD1); assay type: biochemical; settings: dose-response, ISG15 substrate
[1] = Table S1, 20 µM, DTT buffer
SARS-CoV-2 PLpro-NAB = SARS-CoV-2 PLpro-NAB (Severe acute respiratory syndrome coronavirus 2, UniProt P0DTD1); test: biochemical; settings: for Inhibition in L-cysteine buffer versus DTT buffer (dose-response): 1 mM L-cysteine vs 1 mM DTT; for Inhibitory activity on retest in 1 mM L-cysteine: 50% inhibition at 20 μM
SARS-CoV-2 Mpro = SARS-CoV-2 Mpro (Severe acute respiratory syndrome coronavirus 2, UniProt P0DTD1); assay type: biochemical; settings: 10 μM; 1 mM DTT
USP14, USP7, cathepsin-L = assay type: biochemical, human; settings: 10 μM; 1 mM DTT
Procedure: The assay was performed according to the manufacturer protocol, adapted to 384-well format with a final volume of 10 μL. […] 5 μL of cathepsin-L was added and incubated for 30 min at 25 °C. The enzymatic reaction was initiated by adding 5 μL substrate. […] Final assay concentrations of cathepsin-L and substrate were 0.01 ng/μL and 5 μM, respectively.
Plates were sealed and incubated for 30 min at 25 °C, followed by adding 5 μL/0.5 μM Ubiquitin-AMC (R&D Systems #U-550-050) substrate. The fluorescence signal was measured after 30 min of incubation (Ex/Em = 340/460; EnVision, PerkinElmer). […] The assay buffer is 50 mM Tris, 150 mM NaCl, 1 mM DTT, and 0.01% Tween 20 (pH 7.5).

[2] = system: SARS-CoV-2 BetaCoV/Belgium/GHB-03021/2020 strain; assay type: cell-based; settings: 300 μM, 2 μM CP-100356

Compound: O=c1c(O)cccc2cc(O)c(O)c(O)c12 [purpurogallin]
- Potency against PLpro compared with PLpro-NAB (SARS-CoV-2 PLpro): higher potency against PLpro compared with PLpro-NAB
- Interference inhibition [%] 20 µM based on product interference DTT BUFFER [1]: 12.84%
- Inhibition in L-cysteine buffer versus DTT buffer (dose-response) (SARS-CoV-2 PLpro-NAB): increased inhibition
- Inhibitory activity on retest in 1 mM L-cysteine (SARS-CoV-2 PLpro-NAB): retained their inhibitory activity
- inhibition at 20 µM (SARS-CoV-2 PLpro-NAB; read-out: HC PLpro-NAB inhibition [%] 20 μM triplicates 1 mM DTT buffer): 62.8%
- inhibition at 20 µM (SARS-CoV-2 PLpro-NAB; read-out: HP PLpro-NAB inhibition [%] 20 μM triplicates 1 mM L-cys buffer): 101%
- Preference PLpro over Mpro (SARS-CoV-2 Mpro): preferential inhibition of PLpro over Mpro

Compound: O=C(O)c1cc(O)c2c(c1)[C@H]([C@H]1c3cc(C(=O)O)cc(O)c3C(=O)c3c(O[C@@H]4O[C@H](CO)[C@@H](O)[C@H](O)[C@H]4O)cccc31)c1cccc(O[C@@H]3O[C@H](CO)[C@@H](O)[C@H](O)[C@H]3O)c1C2=O [sennoside A]
- Interference inhibition [%] 20 µM based on product interference DTT BUFFER [1]: 1.69%
- Inhibition in L-cysteine buffer versus DTT buffer (dose-response) (SARS-CoV-2 PLpro-NAB): lost its inhibitory potency
- Inhibitory activity on retest in 1 mM L-cysteine (SARS-CoV-2 PLpro-NAB): retained their inhibitory activity
- Inhibition of Mpro (SARS-CoV-2 Mpro): inhibition of both proteases from SARS-CoV-2

Compound: C/C(=N\NC(=N)N)c1cc(NC(=O)CCCCCCCCC(=O)Nc2cc(/C(C)=N/NC(=N)N)cc(/C(C)=N/NC(=N)N)c2)cc(/C(C)=N/NC(=N)N)c1 [semapimod]
- Potency against PLpro compared with PLpro-NAB (SARS-CoV-2 PLpro): activity exclusively against PLpro-NAB
- Interference inhibition [%] 20 µM based on product interference DTT BUFFER ([1]; listed as Semapimod (EOS)): 9.91%
- Interference inhibition [%] 20 µM based on product interference DTT BUFFER ([1]; listed as Semapimod (FhG)): -5.72%
- Selectivity versus human USP14, USP7, cathepsin-L (USP14, USP7, cathepsin-L): active across all of the tested targets
- Inhibition in L-cysteine buffer versus DTT buffer (dose-response) (SARS-CoV-2 PLpro-NAB): did not show variations in inhibition potency or thermal stability
- Inhibitory activity on retest in 1 mM L-cysteine (SARS-CoV-2 PLpro-NAB): retained their inhibitory activity
- HC PLpro-NAB inhibition [%] 20 μM triplicates 1 mM DTT buffer (SARS-CoV-2 PLpro-NAB; hit confirmation, 20 μM, 1 mM DTT buffer, average (SD), 20 μM PR619 = 100%, DMSO = 0%, listed as semapimod (EOS)): 140.16 (2.99) %
- HC PLpro-NAB inhibition [%] 20 μM triplicates 1 mM DTT buffer (SARS-CoV-2 PLpro-NAB; hit confirmation, 20 μM, 1 mM DTT buffer, average (SD), 20 μM PR619 = 100%, DMSO = 0%, listed as semapimod (FhG)): 118.80 (3.35) %
- HP PLpro-NAB inhibition [%] 20 μM triplicates 1 mM L-cys buffer (SARS-CoV-2 PLpro-NAB; hit profiling, 20 μM, 1 mM L-cys buffer, average (SD), 20 μM PR619 = 100%, listed as semapimod (EOS)): 50.46 (6.98) %
- HP PLpro-NAB inhibition [%] 20 μM triplicates 1 mM L-cys buffer (SARS-CoV-2 PLpro-NAB; hit profiling, 20 μM, 1 mM L-cys buffer, average (SD), 20 μM PR619 = 100%, listed as semapimod (FhG)): 51.28 (5.64) %
- IC50 (SARS-CoV-2 PLpro-NAB; read-out: HP PLpro-NAB IC50 [μM] duplicates 1 mM L-cys buffer, hit profiling, 1 mM L-cys buffer, listed as semapimod (EOS)): > 20 µM
- IC50 (SARS-CoV-2 PLpro-NAB; read-out: HP PLpro-NAB IC50 [μM] duplicates 1 mM L-cys buffer, hit profiling, 1 mM L-cys buffer, listed as semapimod (FhG)): 14.4 µM
- IC50 (SARS-CoV-2 PLpro-NAB; read-out: HP PLpro-NAB IC50 [μM] triplicates 1 mM DTT buffer, hit profiling, 1 mM DTT buffer, listed as semapimod (EOS)): 1.21 µM
- IC50 (SARS-CoV-2 PLpro-NAB; read-out: HP PLpro-NAB IC50 [μM] triplicates 1 mM DTT buffer, hit profiling, 1 mM DTT buffer, listed as semapimod (FhG)): 5.23 µM
- Preference PLpro over Mpro (SARS-CoV-2 Mpro): preferential inhibition of PLpro over Mpro

Compound: CCS(=O)(=O)N1CCC([C@@H](C)n2c(C)c(C(=O)NCc3c(OC)cc(C)[nH]c3=O)c3ccccc32)CC1 [CPI-169]
- Interference inhibition [%] 20 µM based on product interference DTT BUFFER ([1]; listed as CPI-169 (EOS)): 9.34%
- Interference inhibition [%] 20 µM based on product interference DTT BUFFER ([1]; listed as CPI-169 (FhG)): -0.73%
- Preference PLpro over Mpro (SARS-CoV-2 Mpro): preferential inhibition of PLpro over Mpro
- Spike RNA copy number [2]: reduced the Spike RNA copy number significantly

Compound: O=c1cc(-c2cc(O)c(O)c(O)c2)oc2cc(O)c(O)c(O)c12 [DOM_SIM_710, 3′,4’,5′,5,6,7-hexahydroxyflavone]
- Potency against PLpro compared with PLpro-NAB (SARS-CoV-2 PLpro): higher potency against PLpro compared with PLpro-NAB
- Interference inhibition [%] 20 µM based on product interference DTT BUFFER [1]: 10.43%
- Inhibition in L-cysteine buffer versus DTT buffer (dose-response) (SARS-CoV-2 PLpro-NAB): increased inhibition
- Inhibitory activity on retest in 1 mM L-cysteine (SARS-CoV-2 PLpro-NAB): retained their inhibitory activity
- inhibition at 20 µM (SARS-CoV-2 PLpro-NAB; hit confirmation, 20 μM, 1 mM DTT buffer, average (SD), 20 μM PR619 = 100%, DMSO = 0%, read-out: HC PLpro-NAB inhibition [%] 20 μM triplicates 1 mM DTT buffer): 65%
- inhibition at 20 µM (SARS-CoV-2 PLpro-NAB; hit profiling, 20 μM, 1 mM L-cys buffer, average (SD), 20 μM PR619 = 100%, read-out: HP PLpro-NAB inhibition [%] 20 μM triplicates 1 mM L-cys buffer): 155%
- pIC50 (SARS-CoV-2 PLpro-NAB; hit profiling, 1 mM DTT buffer): < 4.70
- Preference PLpro over Mpro (SARS-CoV-2 Mpro): preferential inhibition of PLpro over Mpro
